Our source for the remaining activity values is paper PMC8286840, “Identifying SARS-CoV-2 antiviral compounds by screening for small molecule inhibitors of Nsp3 papain-like protease” (Biochemical Journal, 2021).

Molecules are shown by their SMILES. Counter-ions that a name gives are not always drawn. Like-named read-outs stand apart in the source and are kept apart here. Where a SMILES comes first, the peptide text is derived from it. Side-chain parts run from the residue outwards. The star is where a group is joined. Nicotinoyl = O=C(c1cccnc1)*; Cbz = O=C(OCc1ccccc1)*

For assay [1], the target named is T1, SARS-CoV-2 PLpro (nsp3 1564–1878) (Severe acute respiratory syndrome coronavirus 2, UniProt P0DTD1). Description: biochemical. Also on record: FRET-quenched peptide (Pro3) cleavage by PLpro, 10 min pre-incubation, slope over 20 min, normalised to no-compound control. The conditions noted are these: high concentration screen, read-out: % of control remaining.
For assay [2], the target named is T1, SARS-CoV-2 PLpro (nsp3 1564–1878). Description: biochemical. Details: FRET-quenched peptide (Pro3) cleavage by PLpro, 10 min pre-incubation, slope over 20 min, normalised to no-compound control. Conditions: low concentration screen, read-out: % of control remaining.

As for `CCCNC(=O)[C@H]1O[C@@H]1C(=O)N[C@H](C(=O)N1CCC[C@H]1C(=O)OC)[C@@H](C)CC` [CA-074 methyl ester], in assay [1] (Well no.=8166), the remaining activity at 3.75 µM came out at 100%. Further, the remaining activity at 1.25 µM in assay [2] (Well no.=8166) is 105%.
`CCCNC(=O)[C@H]1O[C@@H]1C(=O)N[C@H](C(=O)N1CCC[C@H]1C(=O)O)[C@@H](C)CC` [CA-074]: the remaining activity at 3.75 µM in assay [1] (Well no.=8272) was 101%. Moreover, in assay [2] (Well no.=8272), the remaining activity at 1.25 µM stood at 104%.
`O=C1/C(=C/c2ccc(O)c(Br)c2)CN(Cc2ccccc2)C/C1=C\c1ccc(O)c(Br)c1` [CARM1-IN-1]: the remaining activity at 3.75 µM in assay [1] (Well no.=8030) was found to be 88%. The remaining activity at 1.25 µM in assay [2] (Well no.=8030) was found to be 94.4%.
In the case of `OCCNC1CCCc2c1[nH]c1ccc(-c3ccccc3)cc21` (stereo not shown) [CASIN], in assay [1] (Well no.=7373), the remaining activity at 3.75 µM came to 105%. In addition, in assay [2] (Well no.=7373), the remaining activity at 1.25 µM worked out at 102%.
Turning to `CCCCCOc1ccccc1C(O)CC#CCCCC(=O)OC` (stereo not shown) [CAY10514], the remaining activity at 3.75 µM in assay [1] (Well no.=4293) stood at 98.7%. Also, the remaining activity at 1.25 µM in assay [2] (Well no.=4293) is 100%.
For `NC(=O)c1cc(N2CC2)c([N+](=O)[O-])cc1[N+](=O)[O-]` [CB 1954], the remaining activity at 3.75 µM in assay [1] (Well no.=189) was determined as 95.5%. The remaining activity at 1.25 µM in assay [2] (Well no.=189) turned out to be 94.7%.
For the compound `C[C@H](N)C(=O)N1C[C@H](CCCB(O)O)[C@](N)(C(=O)O)C1` [CB-1158 (dihydrochloride)], in assay [1] (Well no.=8743), the remaining activity at 3.75 µM amounted to 99.3%. Moreover, the remaining activity at 1.25 µM in assay [2] (Well no.=8743) was determined as 100%.
Consider `Nc1ccc(/C=C/c2cccc(C(=O)O)n2)cc1` [CB-7921220], for which the remaining activity at 3.75 µM in assay [1] (Well no.=7759) is 95.7%. In addition, the remaining activity at 1.25 µM in assay [2] (Well no.=7759) was 103%.
As to `c1cc(OCCN2CCCCC2)cc(-c2n[nH]c3ccc(-c4nnc[nH]4)cc23)c1` [CC-401], the remaining activity at 3.75 µM in assay [1] (Well no.=3027) is 96.9%. For the same compound, the remaining activity at 1.25 µM in assay [2] (Well no.=3027) came to 99.3%.
As for `COc1ccc(N2C(=O)/C(=C\c3ccc([N+](=O)[O-])s3)SC2=S)cc1` [CCF642], the remaining activity at 3.75 µM in assay [1] (Well no.=8774) is 93.7%. In assay [2] (Well no.=8774), the remaining activity at 1.25 µM was 93.3%.
`Cc1ccc(-n2sc(=O)n(Cc3ccc(F)cc3)c2=O)cc1` [CCG 50014]: the remaining activity at 3.75 µM in assay [1] (Well no.=5215) came out at 102%. Besides, the remaining activity at 1.25 µM in assay [2] (Well no.=5215) was found to be 105%.
Turning to `CC(ONC(=O)c1cc(C(F)(F)F)cc(C(F)(F)F)c1)C(=O)Nc1ccc(Cl)cc1` (stereo not shown) [CCG-1423], the remaining activity at 3.75 µM in assay [1] (Well no.=7811) was 101%. Also, in assay [2] (Well no.=7811), the remaining activity at 1.25 µM turned out to be 99.2%.
For the compound `Cc1cccn2c(=O)c(/C=C(\C#N)c3nc4ccccc4s3)c(Oc3ccc(F)cc3)nc12` [CCG-63808], the remaining activity at 3.75 µM in assay [1] (Well no.=7037) is 101%. In addition, the remaining activity at 1.25 µM in assay [2] (Well no.=7037) worked out at 102%.
For `O=C(Nc1ccc(Cl)cc1)C1CCCN(C(=O)c2cccc(-c3ccco3)c2)C1` (stereo not shown) [CCG-203971], the remaining activity at 3.75 µM in assay [1] (Well no.=6005) stood at 101%. Besides, the remaining activity at 1.25 µM in assay [2] (Well no.=6005) came to 103%.
On to `CC(=O)C1=C(O)C(=O)N(c2ccc(Cl)cc2F)[C@@H]1C1CCCCC1` [CCR2-RA-[R]], for which the remaining activity at 3.75 µM in assay [1] (Well no.=8118) came out at 95.9%; in assay [1] (Well no.=8229), 91.4%. Besides, the remaining activity at 1.25 µM was determined as 100% in assay [2] (Well no.=8118) and 96.6% in assay [2] (Well no.=8229).
`NC(=O)c1cc(-c2ccc(S(=O)(=O)[C@H]3CC[C@H](Nc4ccc(C(F)(F)F)cn4)CC3)cc2)ccn1` [CCR6 inhibitor 1]: the remaining activity at 3.75 µM in assay [1] (Well no.=8609) was 99%. Besides, in assay [2] (Well no.=8609), the remaining activity at 1.25 µM came to 103%.
For the compound `NC1(Cc2ccc(Cl)cc2)CCN(c2ncnc3[nH]ccc23)CC1` [CCT128930], the remaining activity at 3.75 µM in assay [1] (Well no.=5302) stood at 95.6%. Further, the remaining activity at 1.25 µM in assay [2] (Well no.=5302) is 97.5%.
For the compound `CN(C)c1ccc(-c2nc3ncc(Cl)c(N4CCN(CC(=O)Nc5nccs5)CC4)c3[nH]2)cc1` [CCT129202], in assay [1] (Well no.=5253), the remaining activity at 3.75 µM was determined as 93.9%. In addition, the remaining activity at 1.25 µM in assay [2] (Well no.=5253) was 88.1%.
Take `Cc1cc(CN2CCN(c3c(Br)cnc4nc(-c5ccc(N6CCN(C)CC6)cc5)[nH]c34)CC2)no1` [CCT137690]: in assay [1] (Well no.=5033), the remaining activity at 3.75 µM was 99.3%. Also, the remaining activity at 1.25 µM in assay [2] (Well no.=5033) came to 98%.
With `NC(=O)c1cc(S(=O)(=O)Nc2ccc3cc(C4CC4)[nH]c3c2)ccc1O` [CD73-IN-1], the remaining activity at 3.75 µM in assay [1] (Well no.=8325) came to 94.5%. Besides, the remaining activity at 1.25 µM in assay [2] (Well no.=8325) worked out at 95.7%.
Consider `CN1CCN(c2cccc(Nc3nc4c(-c5ccc(S(C)(=O)=O)cc5)cccn4n3)c2)CC1` [CEP33779], for which the remaining activity at 3.75 µM in assay [1] (Well no.=5129) worked out at 106%. Further, in assay [2] (Well no.=5129), the remaining activity at 1.25 µM was 104%.
For `COC(=O)[C@H](CCCCn1cccc1CCC(=O)O)NC(=O)CNC(C)=O` [CEP dipeptide 1], the remaining activity at 3.75 µM in assay [1] (Well no.=8606) was found to be 96.4%. Further, the remaining activity at 1.25 µM in assay [2] (Well no.=8606) was found to be 98.6%.
As for `COc1cc2ncnc(Oc3cccc(NC(=O)Nc4cc(C(C)(C)C(F)(F)F)on4)c3)c2cc1OC` [CEP-32496], in assay [1] (Well no.=5362), the remaining activity at 3.75 µM was 96.8%. Moreover, the remaining activity at 1.25 µM in assay [2] (Well no.=5362) stood at 100%.
Take `COc1cccc(-c2cn(-c3ccc(CCN4CCC(O)CC4)cc3)c3ncnc(N)c23)c1` [CGP77675]: the remaining activity at 3.75 µM in assay [1] (Well no.=5466) was determined as 99.9%. Besides, in assay [2] (Well no.=5466), the remaining activity at 1.25 µM was found to be 93.4%.
As to `Cn1cc(C(F)(F)F)nc1-c1ccc(OCC(O)CNCCOc2ccc(O)c(C(N)=O)c2)cc1` (stereo not shown) [CGP 20712A methanesulfonate], in assay [1] (Well no.=585), the remaining activity at 3.75 µM was 106%. Also, the remaining activity at 1.25 µM in assay [2] (Well no.=585) came out at 105%.
For the compound `O=C1NC(=O)c2cc(Nc3ccc(F)cc3)c(Nc3ccc(F)cc3)cc21` [CGP 53353 - 5,6-bis[(4-Fluorophenyl)amino]-1H-isoindole-1,3(2H)-dione], in assay [1] (Well no.=2530), the remaining activity at 3.75 µM worked out at 102%. Besides, the remaining activity at 1.25 µM in assay [2] (Well no.=2530) came out at 101%.
In the case of `Nc1ncnc2n[nH]c(Nc3ccc(F)cc3)c12` [CGP 57380 - N3-(4-Fluorophenyl)-1H-pyrazolo-[3,4-d]pyrimidine-3,4-diamine], in assay [1] (Well no.=2624), the remaining activity at 3.75 µM amounted to 92.7%. Further, in assay [2] (Well no.=2624), the remaining activity at 1.25 µM is 92.8%.
Consider `CC(C)(CO)Cc1cc(C(C)(C)C)c(O)c(C(C)(C)C)c1` [CGP-7930], for which the remaining activity at 3.75 µM in assay [1] (Well no.=43) was determined as 102%. Moreover, the remaining activity at 1.25 µM in assay [2] (Well no.=43) stood at 101%.
Turning to `CC(C)(C=O)Cc1cc(C(C)(C)C)c(O)c(C(C)(C)C)c1` [CGP-13501], the remaining activity at 3.75 µM in assay [1] (Well no.=91) was 105%. Besides, in assay [2] (Well no.=91), the remaining activity at 1.25 µM was found to be 105%.
Regarding `O=C1CSC(c2ccccc2Cl)c2cc(Cl)ccc2N1` (stereo not shown) [CGP-37157], the remaining activity at 3.75 µM in assay [1] (Well no.=5845) amounted to 106%. The remaining activity at 1.25 µM in assay [2] (Well no.=5845) is 106%.
As for `CC[C@H](C)[C@H](NC(=O)[C@@H]1CCCN1C(=O)[C@H](Cc1cnc[nH]1)NC(=O)[C@H](CCCCNC(=O)[C@H](CCCN=C(N)N)NC(=O)OCc1ccccc1)NC(=O)[C@H](Cc1ccc(O)cc1)NC(=O)c1cccnc1)C(=O)O` [CGP-42112] (Nicotinoyl-YK([Arg-Cbz])HPI-OH), the remaining activity at 3.75 µM in assay [1] (Well no.=7652) stood at 97.2%. In assay [2] (Well no.=7652), the remaining activity at 1.25 µM is 98%.
